{
  "source": "paper PMC10448909",
  "about": "(Cancer Research Communications, 2023)",
  "key": {"[1]": {"settings": "cited from earlier work"}, "[2]": {"settings": "cited from earlier work", "remark": "listed apart in the source"}, "[3]": {"tested_on": "metastatic renal carcinoma", "set-up": "method as in PMID 10561320", "settings": "phase II, patients with metastatic renal carcinoma; cited from earlier work"}, "MetAP2 [4]": {"tested_on": "MetAP2", "experiment": "Met-EF1α pharmacodynamic biomarker in white blood cells", "format": "in vivo, human", "settings": "12 mg once daily and higher, from cycle 1, day 15 onward; no obvious dose correlation", "excerpt": "(§1) Tumor biopsies were collected during the screening period and on cycle 2, day 1. White blood cell (WBC) samples were collected during the screening period, predose on days 1, 2, 8, and 15 of cycle 1 and postdose on days 1 and 15 of cycle 1. In addition, WBC samples were collected predose on days 1 and 15 of cycle 2.\n(§2) No formal significance level was defined for this study and all analyses were considered descriptive."}, "MetAP2 [5]": {"tested_on": "MetAP2", "experiment": "Met-EF1α pharmacodynamic biomarker in tumor biopsies", "format": "in vivo, human", "settings": "cycle 2, day 1", "excerpt": "as §1, §2"}, "advanced solid tumors [6]": {"tested_on": "advanced solid tumors", "experiment": "Antitumor activity by RECIST v1.1", "format": "in vivo, human", "description": "Efficacy endpoints included best overall response [BOR: complete response (CR), partial response (PR), stable disease (SD), or progressive disease] according to the RECIST v1.1. criteria ([20]), clinical benefit (defined as CR, PR, or SD for ≥12 weeks) and progression-free survival (PFS). PFS was defined as time from first dose to objective disease progression or death, whichever occurred first. CT scans or MRI were performed predose to document the baseline tumor status using the most appropriate criteria for the malignancy type. Target and non-target lesions were selected on the basis of the initial scan. Clinical efficacy was assessed by the investigators according to RECIST v1.1 every two cycles (starting on day 1 of cycle 3).\nFor the efficacy analysis, objective response and clinical benefit were summarized and 95% exact Clopper–Pearson confidence intervals (CI) were estimated ([21]). Kaplan–Meier estimates were calculated for PFS and the CI for the median PFS was calculated according to Brookmeyer and Crowley ([22])."}, "[7]": {"tested_on": "patient-derived renal cell carcinoma xenografts", "set-up": "method as in earlier work", "settings": "with sunitinib, cabozantinib, axitinib; Friese-Hamim M, personal communication; cited from earlier work"}, "[8]": {"tested_on": "human tumor cell xenografts in mice", "set-up": "method as in El Bawab S, personal communication", "settings": "defined by preclinical modeling; ref El Bawab S, personal communication; cited from earlier work"}, "advanced solid tumors [9]": {"tested_on": "advanced solid tumors", "settings": "patients with advanced solid tumors; cited from earlier work"}},
  "note": "Where two headings read alike, the source gives them in different places.",
  "data": [
    {"smiles": "CO[C@@H]1[C@H](OC(=O)NC(=O)CCl)CC[C@]2(CO2)[C@H]1[C@@]1(C)O[C@@H]1CC=C(C)C", "note": "[TNP-470]", "values": [
      {"measurement": "Pharmacokinetic variability in phase I studies", "setting": "[1]", "result": "high pharmacokinetic variability"},
      {"measurement": "Neurotoxicity in phase I studies", "setting": "[2]", "result": "considerable neurotoxicity"},
      {"measurement": "Objective responses", "setting": "[3]", "result": "failed to show any significant objective responses"}
    ]},
    {"smiles": "O=C(NCc1cc(F)cc(F)c1)[C@@]1(O)CCN(c2ccc3[nH]ccc3c2)C1=O", "note": "[M8891]", "values": [
      {"measurement": "Pharmacodynamic response in WBCs", "setting": "MetAP2 [4]", "result": "low and variable pharmacodynamic response"},
      {"measurement": "Met-EF1α accumulation in tumors", "setting": "MetAP2 [5]; 7 to 35 mg once daily", "result": "tended to increase up to 35 mg once daily in a dose-dependent manner"},
      {"measurement": "Met-EF1α levels in tumor", "setting": "MetAP2 [5]; ≥35 mg once daily", "result": "≥ 125", "unit": "μg/mg protein"},
      {"measurement": "Duration of stable disease", "setting": "advanced solid tumors [6]; 7 patients with BOR of SD", "result": "42 to 123", "unit": "days"},
      {"measurement": "Objective responses", "setting": "advanced solid tumors [6]; all doses, n = 27", "result": "no objective responses"},
      {"measurement": "Antitumor activity in combination with VEGFR-targeted TKIs", "setting": "[7]", "result": "strong and durable antitumor activity"},
      {"measurement": "Target Met-EF1α level expected to be correlated with efficacy", "setting": "[8]", "result": 125, "unit": "μg/mg protein"}
    ]},
    {"smiles": "CO[C@@H](C(=O)N[C@H]1CC[C@@H](OC(=O)C2CCCCC2)CNC1=O)[C@H](O)[C@@H](O)[C@H](O)/C=C/C(C)(C)C", "note": "[LAF389]", "values": [
      {"measurement": "Objective responses", "setting": "advanced solid tumors [9]", "result": "failed to show any objective responses"}
    ]}
  ]
}
